# Reference: article PMC11406361, “Several orphan solute carriers functionally identified as organic cation transporters: Substrates specificity compared with known cation transporters” (The Journal of Biological Chemistry, 2024)
# Legend:
# SLC35F3 = SLC35F3 (Homo sapiens, UniProt Q8IY50); conditions: 2.5 μM, 2 min, HEK293
# Experimental: (§1) Typically discussed substrates of the proton organic-cation antiporter ([14]) are highlighted in dark green in Figure 1.
# (§2) In preparation for transport experiments, 24-well plates were pre-coated with poly-D-lysine (Sigma-Aldrich) and 300,000 cells were plated per well and incubated for 48 h. Firstly, the 24-well plate was placed on a heating plate at 37 °C, and the cells were washed with 37 °C HBSS^+ buffer (Hank’s balanced salt solution supplemented with 10 mM Hepes and adjusted to pH 7.4; Thermo Fisher Scientific). The substance-of-interest, which was diluted in 37 °C HBSS^+ to a desired concentration, was added to the cells for exactly 2 min. […] The uptake was stopped with ice-cold HBSS^+, and the 24-well plate was removed from the heating plate. The cells were washed twice with the cold HBSS^+ before they were lysed for 15 min with 80% (v/v) acetonitrile containing the respective internal standard for mass spectrometry. For variations in seeded cell numbers between the cell lines, several wells were lysed in RIPA buffer and used for total protein quantification using a bicinchoninic assay ([74]) and bovine serum albumin as calibration.
# (§3) The intracellular drug concentrations after transport experiments were analyzed by high-performance liquid chromatography coupled to tandem mass spectrometry analysis. The HPLC consisted of a Shimadzu Nexera HPLC System with a SIL-30AC autosampler, a LC-30AD pump, a CTO-20AC column oven, and a CBM-20A controller (Shimadzu). The reverse-phase chromatography of compounds was accomplished with a Brownlee SPP RP-Amide column with 4.6 × 100 mm inner dimensions, a particle size of 2.7 μm, and a preceding Phenomenex C-18 guard column. The mobile phase was composed of an organic additive with acetonitrile:methanol 6:1 (v/v) in total concentrations between 3% and 50% (v/v) and 0.1% (v/v) formic acid in the aqueous component of the eluent. During separation, the column oven was held at 40 °C and the mobile phase was maintained at a flow rate of 300 or 400 μl/min. After separation, the detection of substances was performed with an API 4000 tandem mass spectrometer (AB SCIEX, https://sciex.com/support/software-support/software-downloads), followed by quantification of results with the Analyst software (AB SCIEX, version 1.6.2). The composition of chromatographic conditions, as well as detailed mass spectrometric detection parameters, are listed in Table S5.
# (§4) Transport-mediated net uptake was determined as fold-increase of transporter-overexpressing cells over empty vector–transfected control cells.
# SLC35G3 = SLC35G3 (Homo sapiens, UniProt Q8N808); experiment: Uptake ratio screen, SLC35G3-overexpressing HEK293 over empty vector cells; format: cell-based; set-up: by amplifying the entire gene-of-interest within the HEK293 genome via a long-range PCR; conditions: 2.5 μM substrate, 2 min, HEK293
# SLC35F4 = molecular target: T1, SLC35F4 (Homo sapiens, UniProt A4IF30); experiment: Uptake ratio screen, SLC35F4-overexpressing HEK293 over empty vector cells; format: cell-based; set-up: by amplifying the entire gene-of-interest within the HEK293 genome via a long-range PCR; conditions: 2.5 μM, 2 min
# T1 sequence (A4IF30 1-521): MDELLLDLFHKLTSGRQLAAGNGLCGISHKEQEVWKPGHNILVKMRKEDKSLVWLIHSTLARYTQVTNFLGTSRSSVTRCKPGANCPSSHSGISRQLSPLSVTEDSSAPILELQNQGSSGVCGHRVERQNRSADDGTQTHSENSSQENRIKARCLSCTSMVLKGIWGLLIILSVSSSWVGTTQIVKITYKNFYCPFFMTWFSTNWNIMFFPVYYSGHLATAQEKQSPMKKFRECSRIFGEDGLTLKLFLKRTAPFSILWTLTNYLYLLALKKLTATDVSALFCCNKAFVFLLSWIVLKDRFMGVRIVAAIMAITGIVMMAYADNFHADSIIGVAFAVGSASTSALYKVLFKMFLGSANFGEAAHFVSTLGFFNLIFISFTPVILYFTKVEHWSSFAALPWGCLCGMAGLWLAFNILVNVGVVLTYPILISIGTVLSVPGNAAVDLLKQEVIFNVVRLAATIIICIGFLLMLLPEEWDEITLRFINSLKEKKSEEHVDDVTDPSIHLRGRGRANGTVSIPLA
# Experimental: as §1, §2, §3, §4
# OCT1 = OCT1 (Homo sapiens, UniProt O15245); conditions: 2.5 μM, 2 min, HEK293
# Experimental: as §1, §2, §3, §4
# OCT2 = OCT2 (Homo sapiens, UniProt O15244); conditions: 2.5 μM, 2 min, HEK293
# Experimental: as §1, §2, §3, §4
# SLC47A2 = SLC47A2 (Homo sapiens, UniProt Q86VL8); experiment: Uptake ratio screen, SLC47A2-overexpressing HEK293 over empty vector cells; format: cell-based; conditions: 2.5 μM, 2 min
# Experimental: as §1, §2
# (§5) The intracellular drug concentrations after transport experiments were analyzed by high-performance liquid chromatography coupled to tandem mass spectrometry analysis. The HPLC consisted of a Shimadzu Nexera HPLC System with a SIL-30AC autosampler, a LC-30AD pump, a CTO-20AC column oven, and a CBM-20A controller (Shimadzu). The reverse-phase chromatography of compounds was accomplished with a Brownlee SPP RP-Amide column with 4.6 × 100 mm inner dimensions, a particle size of 2.7 μm, and a preceding Phenomenex C-18 guard column. […] After separation, the detection of substances was performed with an API 4000 tandem mass spectrometer (AB SCIEX, https://sciex.com/support/software-support/software-downloads), followed by quantification of results with the Analyst software (AB SCIEX, version 1.6.2). […]
# as §4
# SLC47A1 = molecular target: T2, SLC47A1 (Homo sapiens, UniProt Q96FL8); experiment: Uptake ratio screen, SLC47A1-overexpressing HEK293 over empty vector cells; format: cell-based; conditions: 2.5 μM, 2 min
# T2 sequence (Q96FL8 1-570): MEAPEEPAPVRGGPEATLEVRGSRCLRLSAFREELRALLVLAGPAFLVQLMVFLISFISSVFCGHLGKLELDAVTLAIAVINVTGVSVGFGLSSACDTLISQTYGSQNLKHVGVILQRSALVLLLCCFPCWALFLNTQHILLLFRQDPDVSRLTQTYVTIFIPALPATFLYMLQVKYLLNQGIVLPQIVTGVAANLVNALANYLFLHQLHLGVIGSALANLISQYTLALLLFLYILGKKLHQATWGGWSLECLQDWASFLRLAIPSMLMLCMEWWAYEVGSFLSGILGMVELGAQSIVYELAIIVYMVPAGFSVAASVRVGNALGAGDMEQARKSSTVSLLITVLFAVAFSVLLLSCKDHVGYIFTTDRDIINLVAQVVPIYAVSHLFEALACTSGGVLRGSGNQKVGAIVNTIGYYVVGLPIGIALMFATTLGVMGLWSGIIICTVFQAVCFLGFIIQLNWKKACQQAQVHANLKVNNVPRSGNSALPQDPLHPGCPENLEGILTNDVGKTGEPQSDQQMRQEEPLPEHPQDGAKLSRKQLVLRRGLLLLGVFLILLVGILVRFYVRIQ
# Experimental: as §1, §2, §5, §4
# SLC35E4 = molecular target: T3, SLC35E4 (Homo sapiens, UniProt Q6ICL7); experiment: Uptake ratio screen, SLC35E4-overexpressing HEK293 over empty vector cells; format: cell-based; set-up: by amplifying the entire gene-of-interest within the HEK293 genome via a long-range PCR; conditions: 2.5 μM, 2 min
# T3 sequence (Q6ICL7 1-350): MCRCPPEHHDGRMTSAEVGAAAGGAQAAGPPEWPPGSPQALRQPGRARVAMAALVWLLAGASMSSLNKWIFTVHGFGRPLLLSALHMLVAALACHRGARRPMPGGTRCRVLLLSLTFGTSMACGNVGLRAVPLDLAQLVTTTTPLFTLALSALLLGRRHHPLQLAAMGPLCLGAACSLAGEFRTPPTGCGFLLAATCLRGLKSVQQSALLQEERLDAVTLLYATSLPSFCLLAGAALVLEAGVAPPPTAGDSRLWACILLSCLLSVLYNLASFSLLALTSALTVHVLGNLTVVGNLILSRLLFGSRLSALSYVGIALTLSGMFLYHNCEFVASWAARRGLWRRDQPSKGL
# Experimental: as §1, §2, §5, §4
# SLC38A10 = SLC38A10 (Homo sapiens, UniProt Q9HBR0); experiment: Uptake ratio screen, SLC38A10-overexpressing HEK293 over empty vector cells; format: cell-based; set-up: by amplifying the entire gene-of-interest within the HEK293 genome via a long-range PCR; conditions: 2.5 μM, 2 min
# Experimental: as §1
# In preparation for transport experiments, 24-well plates were pre-coated with poly-D-lysine (Sigma-Aldrich) and 300,000 cells were plated per well and incubated for 48 h. Firstly, the 24-well plate was placed on a heating plate at 37 °C, and the cells were washed with 37 °C HBSS^+ buffer (Hank’s balanced salt solution supplemented with 10 mM Hepes and adjusted to pH 7.4; Thermo Fisher Scientific). The substance-of-interest, which was diluted in 37 °C HBSS^+ to a desired concentration, was added to the cells for exactly 2 min. […] For variations in seeded cell numbers between the cell lines, several wells were lysed in RIPA buffer and used for total protein quantification using a bicinchoninic assay ([74]) and bovine serum albumin as calibration.
# The intracellular drug concentrations after transport experiments were analyzed by high-performance liquid chromatography coupled to tandem mass spectrometry analysis. […] After separation, the detection of substances was performed with an API 4000 tandem mass spectrometer (AB SCIEX, https://sciex.com/support/software-support/software-downloads), followed by quantification of results with the Analyst software (AB SCIEX, version 1.6.2). […]
# Chain of OCT1 (O15245 whole entry): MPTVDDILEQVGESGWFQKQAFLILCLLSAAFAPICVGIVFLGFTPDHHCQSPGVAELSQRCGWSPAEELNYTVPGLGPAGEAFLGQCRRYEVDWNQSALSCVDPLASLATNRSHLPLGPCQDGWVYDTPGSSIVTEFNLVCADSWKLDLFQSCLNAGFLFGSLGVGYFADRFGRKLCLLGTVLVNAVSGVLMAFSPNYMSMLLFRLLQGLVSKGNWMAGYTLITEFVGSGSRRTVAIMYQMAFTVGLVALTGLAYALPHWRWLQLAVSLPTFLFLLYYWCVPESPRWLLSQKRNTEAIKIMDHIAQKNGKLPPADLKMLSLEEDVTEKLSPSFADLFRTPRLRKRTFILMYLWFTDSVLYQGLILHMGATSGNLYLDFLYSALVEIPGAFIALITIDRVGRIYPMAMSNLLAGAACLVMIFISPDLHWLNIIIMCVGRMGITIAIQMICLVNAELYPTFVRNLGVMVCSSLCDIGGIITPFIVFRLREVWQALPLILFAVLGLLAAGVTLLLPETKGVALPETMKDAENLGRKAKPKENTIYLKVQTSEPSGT
# Chain of SLC47A2 (Q86VL8 1-566 isoform Q86VL8-3): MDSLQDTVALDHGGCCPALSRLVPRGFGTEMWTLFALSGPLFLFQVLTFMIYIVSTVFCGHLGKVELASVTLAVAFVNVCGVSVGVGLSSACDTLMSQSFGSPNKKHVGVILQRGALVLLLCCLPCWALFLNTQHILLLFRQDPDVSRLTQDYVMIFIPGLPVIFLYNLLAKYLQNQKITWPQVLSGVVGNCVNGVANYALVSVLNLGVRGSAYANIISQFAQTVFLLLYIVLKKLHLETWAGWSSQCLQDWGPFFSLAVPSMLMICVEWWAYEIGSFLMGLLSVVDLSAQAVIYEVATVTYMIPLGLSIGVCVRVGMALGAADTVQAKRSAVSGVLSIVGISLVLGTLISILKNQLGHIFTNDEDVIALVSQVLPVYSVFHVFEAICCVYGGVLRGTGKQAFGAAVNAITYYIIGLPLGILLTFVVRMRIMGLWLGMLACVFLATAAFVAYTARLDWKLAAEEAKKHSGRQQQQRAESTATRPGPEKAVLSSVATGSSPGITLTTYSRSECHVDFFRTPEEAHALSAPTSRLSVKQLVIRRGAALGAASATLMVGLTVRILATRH
# Chain of SLC35G3 (Q8N808 whole entry): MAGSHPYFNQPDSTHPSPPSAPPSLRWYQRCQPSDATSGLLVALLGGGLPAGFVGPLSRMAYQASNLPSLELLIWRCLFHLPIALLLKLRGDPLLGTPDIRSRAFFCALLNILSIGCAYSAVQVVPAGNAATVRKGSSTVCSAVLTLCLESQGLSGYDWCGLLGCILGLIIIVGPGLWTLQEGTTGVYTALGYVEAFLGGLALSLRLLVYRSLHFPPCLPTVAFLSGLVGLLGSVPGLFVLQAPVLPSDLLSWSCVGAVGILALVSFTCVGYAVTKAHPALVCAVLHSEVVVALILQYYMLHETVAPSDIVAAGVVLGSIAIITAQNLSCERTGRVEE
# Chain of SLC38A10 (Q9HBR0 whole entry): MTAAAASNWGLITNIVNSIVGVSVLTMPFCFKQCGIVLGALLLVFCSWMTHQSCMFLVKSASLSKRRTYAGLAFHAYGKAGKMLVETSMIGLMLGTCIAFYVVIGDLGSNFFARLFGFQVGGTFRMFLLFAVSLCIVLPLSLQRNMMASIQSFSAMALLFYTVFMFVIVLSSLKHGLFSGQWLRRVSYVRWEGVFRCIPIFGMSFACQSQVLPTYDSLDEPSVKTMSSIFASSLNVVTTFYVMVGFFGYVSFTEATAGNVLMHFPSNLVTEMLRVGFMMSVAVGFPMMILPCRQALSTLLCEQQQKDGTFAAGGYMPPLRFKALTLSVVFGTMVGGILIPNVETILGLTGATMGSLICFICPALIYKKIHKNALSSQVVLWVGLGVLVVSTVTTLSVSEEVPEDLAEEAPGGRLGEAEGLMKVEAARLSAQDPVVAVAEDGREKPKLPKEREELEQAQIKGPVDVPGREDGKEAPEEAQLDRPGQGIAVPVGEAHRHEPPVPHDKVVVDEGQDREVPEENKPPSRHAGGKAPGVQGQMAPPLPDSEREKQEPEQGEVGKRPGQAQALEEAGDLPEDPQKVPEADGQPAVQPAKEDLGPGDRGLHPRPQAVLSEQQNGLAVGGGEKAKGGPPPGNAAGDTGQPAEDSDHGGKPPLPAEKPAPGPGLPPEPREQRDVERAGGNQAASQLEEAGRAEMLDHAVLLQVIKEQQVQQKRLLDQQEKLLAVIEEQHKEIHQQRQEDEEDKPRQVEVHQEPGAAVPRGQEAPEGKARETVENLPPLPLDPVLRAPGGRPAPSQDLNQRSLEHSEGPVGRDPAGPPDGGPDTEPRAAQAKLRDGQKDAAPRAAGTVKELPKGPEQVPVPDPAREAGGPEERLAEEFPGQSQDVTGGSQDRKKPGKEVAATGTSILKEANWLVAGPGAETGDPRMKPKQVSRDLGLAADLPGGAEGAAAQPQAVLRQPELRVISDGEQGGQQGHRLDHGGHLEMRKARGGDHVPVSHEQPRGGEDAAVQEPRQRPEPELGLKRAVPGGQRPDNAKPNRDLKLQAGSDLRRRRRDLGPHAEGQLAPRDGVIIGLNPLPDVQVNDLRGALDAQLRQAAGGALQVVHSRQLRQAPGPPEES
# Chain of SLC35F3 (Q8IY50 whole entry): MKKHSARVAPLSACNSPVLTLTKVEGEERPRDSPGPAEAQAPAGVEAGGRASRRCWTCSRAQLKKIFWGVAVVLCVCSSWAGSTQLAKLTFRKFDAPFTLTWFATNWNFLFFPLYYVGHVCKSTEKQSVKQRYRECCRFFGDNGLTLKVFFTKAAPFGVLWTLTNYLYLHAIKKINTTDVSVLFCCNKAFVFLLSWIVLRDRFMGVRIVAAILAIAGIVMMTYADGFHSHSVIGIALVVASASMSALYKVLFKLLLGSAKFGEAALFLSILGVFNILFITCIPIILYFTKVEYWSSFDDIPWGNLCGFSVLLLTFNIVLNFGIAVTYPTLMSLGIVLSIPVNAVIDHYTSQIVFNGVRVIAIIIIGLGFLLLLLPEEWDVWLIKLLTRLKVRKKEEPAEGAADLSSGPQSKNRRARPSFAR
# Chain of OCT2 (O15244 whole entry): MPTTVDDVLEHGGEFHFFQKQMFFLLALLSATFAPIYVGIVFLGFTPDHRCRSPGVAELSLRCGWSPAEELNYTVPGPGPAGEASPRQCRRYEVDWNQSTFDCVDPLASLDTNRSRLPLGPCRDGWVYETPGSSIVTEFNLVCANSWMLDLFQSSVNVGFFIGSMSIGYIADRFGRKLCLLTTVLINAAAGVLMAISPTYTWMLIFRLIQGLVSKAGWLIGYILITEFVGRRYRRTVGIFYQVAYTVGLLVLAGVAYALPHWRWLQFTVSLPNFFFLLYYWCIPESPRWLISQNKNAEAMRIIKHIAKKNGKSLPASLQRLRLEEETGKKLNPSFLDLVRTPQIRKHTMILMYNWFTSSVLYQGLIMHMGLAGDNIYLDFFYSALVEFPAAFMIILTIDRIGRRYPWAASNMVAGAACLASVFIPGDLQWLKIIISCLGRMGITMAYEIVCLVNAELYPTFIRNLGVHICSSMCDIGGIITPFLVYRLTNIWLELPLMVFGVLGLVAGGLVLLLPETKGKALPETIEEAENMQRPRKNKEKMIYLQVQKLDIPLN
smiles,measurement,setting,value
Cc1ncc(C[n+]2csc(CCO)c2C)c(N)n1 [Thiamine],Uptake by SLC35F3 (in words),SLC35F3,no enhanced thiamine uptake
same,"Uptake data for SLC35G3, mean value (fold-increase over empty vector control)",SLC35G3,0.90
same,Uptake by SLC35F4 (in words),SLC35F4,no enhanced thiamine transport
Nc1nc(=O)n([C@@H]2CS[C@H](CO)O2)cc1F [emtricitabine],Uptake by OCT1 (in words),OCT1,to some extent
same,Uptake by OCT2 (in words),OCT2,to some extent
same,Uptake by SLC47A2 (MATE2K) (in words),SLC47A2,only transported by the MATEs
same,Uptake by SLC47A1 (MATE1) (in words),SLC47A1,only transported by the MATEs
N[C@@H](CCC(=O)O)C(=O)O [glutamic acid],Uptake by SLC35E4 (in words),SLC35E4,minor
same,Uptake by SLC38A10 compared with empty-vector-transfected cells (factor),SLC38A10,1.4
